Reference: patent publication US20070167329A1, “Plant growth regulation” (Bayer CropScience GmbH, priority 2003, published 2007)

Tests used:
[1] = tested on: wheat (Triticum aestivum, variety "TRISO"); experiment: Root growth assay, seed treatment, wheat; type: in vivo; parameters: key to Root Growth (Root Growth of "100" is set as the standard): relative root growth; 100 = standard (untreated control); details: for Root Growth (Root Growth of "100" is set as the standard): wet root weight 16 (±2) days post treatment; for effect as plant growth regulator in wheat: result in words, at various/different concentrations
Source text: (§1) Plant roots are a highly proliferative tissue that allows an easy accessible, cheap and short term screening method for plant growth regulators. The results obtained can easily be transferred to the overall effects on a plant of plant growth regulators identified by such a system. By using this root assay one is enabled to determine the effect of a seed treatment to root growth and/or germination and/or changes in habitat of germinated plants in order to identify the possible use as a yield enhancer. Two seeds of wheat (Triticum aestivum, variety “TRISO”) or 1 seed of maize (Zea mays, variety “LORENZO”) per hole in a plastic tray which contains an architecture of 8×13 holes were placed on compost soil covered with sand. These seeds were treated with 100 μl/hole, which creates an application volume of approx. 1200 l/ha, of a compound solution at active ingredient rates equivalent to 100, 10 and 1 g a.i./ha of each compound using an robotic application system (Lizzy Spray Robotics). Six replicates in a row of each compound and concentration were done. The outer rim of the above defined plastic tray was untreated to avoid false negative effects and the middle row (No. 7) was used as untreated control. The treated seeds were allowed to dry for approx. 4 hours and subsequently covered with sand and watered. The trays were stored in climate chambers with 14 hours lighting at a temperature of 24° C. (±2) at daytime and 16° C. (±2) at night and relative humidity (rH) of 60% and daily watered. Assessments were done 16 (±2) days post treatment by counting the germinated plants and assessing the phytotoxicity symptoms and percentage. In addition, the roots were washed out and the shoots were cut directly above the seed and the wet roots were placed on dry paper towels for approximately 30 minutes and weighted afterwards. This procedure provides a similar grade of moisture to the roots so that a comparison of the weights is possible.
(§2) The effects observed concerning Root Growth given in column 2 (Root Growth of “100” is set as the standard) are directed to concentrations that are equivalent to 100, 10, 1 g a.i./ha, each.

[2] = tested on: maize (Zea mays, variety "LORENZO"); experiment: Root growth assay, seed treatment, maize; type: in vivo; details: for Root Growth (Root Growth of "100" is set as the standard): wet root weight 16 (±2) days post treatment; for effect as plant growth regulator in maize: result in words
Source text: as §1, §2

Compound | Root Growth (Root Growth of "100" is set as the standard) ([1]; 1 g a.i./ha) | Root Growth (Root Growth of "100" is set as the standard) ([1]; 10 g a.i./ha) | Root Growth (Root Growth of "100" is set as the standard) ([1]; 100 g a.i./ha) | effect as plant growth regulator in wheat [1] | Root Growth (Root Growth of "100" is set as the standard) ([2]; 1 g a.i./ha) | Root Growth (Root Growth of "100" is set as the standard) ([2]; 10 g a.i./ha) | Root Growth (Root Growth of "100" is set as the standard) ([2]; 100 g a.i./ha) | effect as plant growth regulator in maize [2] | melting point
CSc1ccc(Nc2nc(N)c(C(=O)c3cccnc3)s2)cc1 [Compound 1.117] | 111 | 126 | 125 |  |  |  |  |  | 
N#Cc1ccc(Nc2nc(N)c(C(=O)c3cccnc3)s2)cc1 [Compound 1.108] | 78 | 95 | 131 | superior effect |  |  |  |  | 
Nc1nc(Nc2cccnc2)sc1C(=O)c1ccc(OC(F)F)cc1 [Compound 1.60, [4-Amino-2-(pyridin-3-yl-amino)-thiazol-5-yl]-(4-difluoromethoxyphenyl)-methanone] | 98 | 57 | 54 |  | 191 | 105 | 109 | superior effect | 143 °C
Nc1nc(NCC2CCCCC2)sc1C(=O)C(Cc1ccccc1)NC(=O)OCc1ccccc1 (stereo not shown) [Compound 1.139] | 130 | 66 | 120 |  |  |  |  |  | 
Nc1nc(Nc2ccccc2)sc1C(=O)c1cccs1 [Compound 1.79] | 88 | 88 | 73 |  | 108 | 116 | 105 | superior effect | 
COc1ccc(Nc2nc(N)c(C(=O)c3cccnc3)s2)cc1 [Compound 1.106] | 145 | 99 | 90 | superior effect |  |  |  |  | 
Nc1nc(Nc2ccccc2)sc1C(=O)c1cccnc1 [Compound 1.105] | 72 | 99 | 123 | superior effect |  |  |  |  | 
Nc1nc(Nc2cccc(C(F)(F)F)c2)sc1C(=O)c1ccc(OC(F)F)cc1 [Compound 1.58] | 123 | 112 | 103 | superior effects | 91 | 107 | 105 | superior effects | 
Nc1nc(Nc2ccc(OC(F)(F)F)cc2)sc1C(=O)c1cccnc1 [Compound 1.118] | 95 | 122 | 113 |  |  |  |  |  | 
Nc1nc(Nc2ccccc2)sc1C(=O)c1ccc(OC(F)F)cc1 [Compound 1.53] | 125 | 107 | 101 | superior effects | 91 | 85 | 108 | superior effects | 
